Results as given in ChEMBL document CHEMBL3507680, “University of Dundee, Gates Library screen for HepG2 cell viability”.
“And” between values parts separate entries of the source, which are not always exact repeats. Equal values may be shown once.

How the values were obtained:
[1] = Human HepG2 cell viability assay in 384 well format; type: toxicity, cell-based; set-up: dose 125 nL, time 70.5 hour; cytotoxicity at 70.5 h: concentration not given beside the values; conditions: for Inhibition: hepg2, 70.5 h, 70.5 h; for cytotoxicity at 70.5 h: HepG2 cells, read-out: Inhibition
[2] = Human HepG2 cell viability dose-response assay; type: toxicity, cell-based

Compound | cytotoxicity at 70.5 h [1] | further results
CC1=Nc2c(c(=O)[nH]n2C(C)C)C(c2ccsc2)S1 (configuration not stated) |  | Inhibition [1]: -5.291% and -4.016%
CC1=Nc2c(c(=O)[nH]n2C2CCCCC2)C(c2ccc(C(=O)O)cc2)S1 (configuration not stated) |  | Inhibition [1]: -14.53% and -17.54%
Cc1cc(NC(=O)C(C)Cn2cncn2)no1 (configuration not stated) |  | Inhibition [1]: 6.977% and -4.493%
O=C(NCCCN1CCCCC1)c1ccc(-n2ccc3ccccc32)s1 | 64.9% | BOTTOM [2]: -3.023 and -2.579; HILLSLOPE [2]: 5.041 and 5.956; TOP [2]: 103.2 and 102.3; pXC50 [2]: 5.01 and 4.975
Cc1cccc(C)c1Nc1noc2c1CN(C(=O)c1cn(C)cn1)CC2 | 75.1% | BOTTOM [2]: -7.032 and -2.364; HILLSLOPE [2]: 1.548 and 1.741; TOP [2]: 100; pXC50 [2]: 4.986 and 4.918
CC(C)Nc1cc(-c2c[nH]nc2C2CCN(C(=O)C3CCC3)C2)ccn1 (configuration not stated) | 95.8% | BOTTOM [2]: 5.771 and 12.22; HILLSLOPE [2]: 3.68 and 3.705; TOP [2]: 97.15 and 97.9; pXC50 [2]: 6.593 and 6.589
Cc1cnc(CCN(C)C(=O)c2cccc(N(C)C)c2)s1 | 60.6% | BOTTOM [2]: 0; HILLSLOPE [2]: 0; TOP [2]: 0; pXC50 [2]: < 4.53
Cc1nn(C)cc1C(=O)Nc1cccc(CN2CCC(CO)CC2)c1 | 60.6% | BOTTOM [2]: 0; HILLSLOPE [2]: 0; TOP [2]: 0; pXC50 [2]: < 4.53
COCC(NC(=O)c1cn2ccsc2n1)c1ccnn1C (configuration not stated) | 97.2% | BOTTOM [2]: 0; HILLSLOPE [2]: 0; TOP [2]: 0; pXC50 [2]: < 4.53
Cc1cnn(CC2CCCN2C(=O)Cc2cccs2)c1 (configuration not stated) | -8.39% | 
Cc1nc(C2CCCN(C(=O)c3cc(Cl)c4c(c3)OCO4)C2)no1 (configuration not stated) | -5.22% | 
Cc1cnn(CC2CCCCN2CC(=O)Nc2nc(C)cs2)c1 (configuration not stated) | -2.94% | 
CCOc1ncccc1CNC(=O)Nc1cc(C)nn1C | -4.27% | 
Cc1ccc(CNC(C)c2ccc(OCC(=O)NC3CC3)cc2)o1 (configuration not stated) | -1.22% | 
CCN(Cc1nc2c(cnn2C)c(=O)[nH]1)c1cc(C)cc(C)c1 | 9.75% | 
CC(Cc1cccc(Cl)c1)NC(=O)Nc1cnn(CC(N)=O)c1 (configuration not stated) | -1.82% | 
COc1ccc(N(C)Cc2nc3c(cnn3C)c(=O)[nH]2)cc1OC | 0.734% | 
CC(C)NC(=O)C1CCN(c2snc3ccccc23)CC1 | -9.65% | 
O=C(Nc1ccc(F)cc1)N1CCN(Cc2noc(C3CC3)n2)CC1 | 1.53% | 
Cc1cnn(CC2CCCCN2C(=O)Cc2c(C)nn(C)c2C)c1 (configuration not stated) | -3.41% | 
Cc1cnn(CC2CCCN2CC(=O)NC2CCOCC2)c1 (configuration not stated) | 0.77% | 
Cc1cnn(CC2CCCCN2C(=O)c2csc(C)n2)c1 (configuration not stated) | -3.43% | 

Compound | cytotoxicity at 70.5 h [1] | further results
Cc1cnn(CC2CCCCN2C(=O)Cc2ccc(C#N)cc2)c1 (configuration not stated) | -7.76% | 
Cc1cnn(CC2CCCCN2C(=O)Cc2cccc(F)c2)c1 (configuration not stated) | -10.9% | 
Cc1cnn(CC2CCCCN2C(=O)CC(F)(F)F)c1 (configuration not stated) | -3.76% | 
Cc1cccc(NC(=O)N2CCN(Cc3noc(C4CC4)n3)CC2)c1 | 2.6% | 
Cc1nnc2n1CCN(CCOc1ccccc1C#N)C2 | 11.3% | 
OC(CN1CCC(CNCc2ccccn2)CC1)c1ccccc1 (configuration not stated) | 1.35% | 
CCc1[nH]ncc1C(=O)N1CCOC(c2nc(C)n[nH]2)C1 (configuration not stated) | -2.8% | 
c1ccc(-n2ncc(CN3CCCC(Cn4cncn4)C3)n2)cc1 (configuration not stated) | 0.701% | 
CC(=O)N1CCN(C(=O)NCCc2ccc(Cl)s2)CC1 | -4.33% | 
Cc1ccc(-c2nc(CN(Cc3cccs3)CC3CCCO3)no2)cc1 (configuration not stated) | -8.66% | 
Cc1ccc(-c2nc(CC(=O)N3CCN(c4cnccn4)CC3)cs2)o1 | -4.05% | 
NC(=O)CC1CCN(C(=O)NCCc2ccc(Cl)s2)CC1 | -4.12% | 
O=C(NCC(F)(F)F)C1CSCN1S(=O)(=O)c1ccc(F)cc1Cl (configuration not stated) | -10.4% | 
O=C(NC1CCN(Cc2cccc3c2OCCO3)CC1)c1cccs1 | 0.406% | 
CCCN1CCC(CNC(=O)C2(c3cccc(C)c3)CC2)C1 (configuration not stated) | 4.42% | 
Cn1ccnc1CN1CCOC(Cn2cccn2)C1 (configuration not stated) | -1.69% | 
c1ccc(-n2cc(CN3CCCC3Cn3cncn3)nn2)cc1 (configuration not stated) | -1.22% | 
c1ccc(-n2cc(CN3CCCCC3Cn3cncn3)nn2)cc1 (configuration not stated) | -0.323% | 
c1cnnc(N2CCCC2CNc2ncnc3sccc23)c1 (configuration not stated) | -7.82% | 
Cc1ccc(NC2CCN(C(=O)c3ccc(Cl)cc3F)CC2)nn1 | 23.4% | 
CNc1cc2c(nn1)CCN(C(=O)c1cc(C)n(C3CC3)c1C)C2 | 15.8% | 
CCNc1cc2c(nn1)CCN(C(=O)c1cc(C)n(C3CC3)c1C)C2 | -0.806% | 

Compound | cytotoxicity at 70.5 h [1] | further results
CCOc1ccc(S(=O)(=O)NCc2cccnc2N(C)C)cc1 | 52.9% | 
COCCOc1ccc(NC(=O)N(C)Cc2ccsc2)cn1 | 3.32% | 
O=C(CN1CCC(c2ccnn2CCO)CC1)NCc1cccs1 | 18.4% | 
O=C(CN1CCC(c2ccnn2CCO)CC1)NCC1CC1 | 10.7% | 
CC(C)N(CC(N)=O)Cc1csc(Cc2ccccc2)n1 | 24.4% | 
CCC(CNC(=O)Nc1cnn(CC)c1)N1CCCC1 (configuration not stated) | -3.1% | 
Cc1nn(C)c(N2CCOCC2)c1CNC1CCN(C(C)(C)C)CC1 | 1.66% | 
Cc1csc(N2CCN(C(=O)CCn3cncn3)CC2)n1 | -7.97% | 
CCn1cc(CN2CCCN(C(=O)Cc3cccs3)CC2)cn1 | 28% | 
O=C1CC(N(C(=O)c2ccc3c(c2)CCC3)C2CC2)C(=O)N1 (configuration not stated) | 33.4% | 
COc1cc(C(=O)N(C2CC2)C2CC(=O)NC2=O)ccc1C (configuration not stated) | -0.747% | 
Cc1cccc(-c2noc(CN3CCCC(Cn4cncn4)C3)n2)c1 (configuration not stated) | 35.6% | 
Cc1nccn1C1CCCN(C(=O)c2cc3ccccc3[nH]2)C1 (configuration not stated) | 42.8% | 
Cc1nccn1C1CCCN(C(=O)c2cc(O)nc3ccccc23)C1 (configuration not stated) | 12.3% | 
Cc1nn(C)c(N2CCOCC2)c1CNC1CCc2ccccc2C1 (configuration not stated) | 16.6% | 
Cn1cc(C2CCCN2Cc2csc(C(C)(C)C)n2)cn1 (configuration not stated) | 25.7% | 
Cn1cc(C2CCCN2Cc2csc(-c3ccsc3)n2)cn1 (configuration not stated) | -0.271% | 
CS(=O)(=O)NCCCN1CCCC1c1ccccc1 (configuration not stated) | 20% | 
Cc1cnn(CC2CCCN2Cc2nnsc2Cl)c1 (configuration not stated) | 31.9% | 
O=C(c1ccc2c(c1)COC2)N1CCN(CC2CC2)CC1 | -7.78% | 
CCCc1cc(C(=O)N2CCCC(n3ccnc3C)C2)[nH]n1 (configuration not stated) | 32.7% | 
c1ncn(CC2CCCN(Cc3nc(C4CC4)no3)C2)n1 (configuration not stated) | 31.5% | 

Compound | cytotoxicity at 70.5 h [1] | further results
COc1ccsc1C(=O)N1CCCC(n2nc(C)nc2C)C1 (configuration not stated) | 3.22% | 
CCCc1n[nH]c(C2CN(Cc3nnc(C4CC4)o3)CCO2)n1 (configuration not stated) | 8.7% | 
COc1ccc(CCN2CCCC2Cn2nc(C)nc2C)cc1 (configuration not stated) | 17.7% | 
Cc1ccoc1-c1nnc(CNCCn2cccn2)o1 | 31.8% | 
CCc1n[nH]c(C2CN(C(=O)c3cc4c(s3)CCCC4)CCO2)n1 (configuration not stated) | 4.71% | 
CN1CCOC(CNCc2coc(-c3ccccc3)n2)C1 (configuration not stated) | -0.149% | 
CN1CCOC(CNCCc2ccccn2)C1 (configuration not stated) | -1.1% | 
Cc1ccc(S(=O)(=O)NC(=O)c2cccc(OCC(N)=O)c2)s1 | -3.78% | 
COc1cccc(-n2c(C)cc(C(=O)O)c2C)c1 | -5.75% | 
CC1CCCN(C(=O)CCc2cccnc2)C1 (configuration not stated) | -3.28% | 
N#Cc1cnn(-c2ccc(C(=O)Nc3ccccn3)cc2)c1N | 25.3% | 
COc1ccccc1C(O)CNC(=O)NCc1cccnc1OC (configuration not stated) | 6.04% | 
Cn1c(NCC(O)c2ccc(F)cc2F)c(C#N)c(=O)n(C)c1=O (configuration not stated) | -5.92% | 
COc1ccccc1C(O)CNC(=O)Nc1ncccc1C (configuration not stated) | 7.49% | 
CC(NC(=O)NCCn1ccnc1)c1ccc2c(c1)NC(=O)CO2 (configuration not stated) | -0.375% | 
NC(=O)c1ccc(S(=O)(=O)NC2CCN(Cc3ccccc3)C2=O)cc1 (configuration not stated) | -8.89% | 
c1coc(-c2nnc(CN3CCOC(Cn4cccn4)C3)o2)c1 (configuration not stated) | 6.43% | 
COc1ccc(NC(=O)c2ccc(-n3ncc(C#N)c3N)cc2)cn1 | 3.5% | 
Cc1cccc(C2(CNC(=O)CCN3C(=O)CCC3=O)CCCC2)c1 | 21% | 
CC(C)c1n[nH]c(C(=O)Nc2cc[nH]n2)c1Br | 7.8% | 
COc1ccc(C2=CCN(C(=O)CN(C)CC(C)C#N)CC2)cc1 (configuration not stated) | 44.4% | 
CN1CCOC(CNCc2cccc(OCC(F)(F)F)c2)C1 (configuration not stated) | -1.74% | 

Compound | cytotoxicity at 70.5 h [1] | further results
CN1CCOC(CNCc2cccc(OCc3ccccn3)c2)C1 (configuration not stated) | -3.38% | 
Cc1nc(C)n(CC2CCCN2CCOc2ccc(C#N)cc2)n1 (configuration not stated) | 6.36% | 
Fc1ccc(-c2cnc(CN3CCCC3Cn3cccn3)o2)cc1 (configuration not stated) | -8.12% | 
OC(CN1CCC(c2ccn[nH]2)CC1)c1cccc(F)c1 (configuration not stated) | -28.7% | 
CS(=O)(=O)c1ccc(C(O)CN2CCC(c3ccn[nH]3)CC2)cc1 (configuration not stated) | -17.4% | 
Cc1noc(CN2CCC(c3ccnn3CCO)CC2)n1 | -13.4% | 
CCCNC(=O)CNc1cc(C#N)ccc1OCC | 14.1% | 
Cc1ccn(-c2ccc(C(=O)N3CCCC(C(N)=O)C3)cc2)n1 (configuration not stated) | -9.79% | 
CN(Cc1cnn(C)c1)C(=O)NCc1nnc2n1CCC2 | -25.4% | 
N#Cc1ccc(OCCCN2CCc3cncnc3C2)cc1 | -0.112% | 
CC1=NN(c2ccc(C(=O)N3CCCC(n4ccnc4)C3)cc2)CC1 (configuration not stated) | -17.1% | 
Cc1cccc(NC2CCN(C(=O)Nc3cc(F)cc(F)c3)CC2)n1 | 42.8% | 
Cn1cnc2c1CCN(CCCOc1ccc(C#N)cc1)C2 | -10.6% | 
Cc1cc(C2CCCN(CCCNS(C)(=O)=O)C2)n[nH]1 (configuration not stated) | -25.3% | 
Cc1cc(C2CCCN(CCc3ccccn3)C2)n[nH]1 (configuration not stated) | -17% | 
Cc1noc(C(C)C)c1C(=O)NCC(c1cccc(F)c1)N(C)C (configuration not stated) | -21.3% | 
Cc1cnn(CC2CCCN2C(=O)CCc2nc3ccccc3[nH]2)c1 (configuration not stated) | -15.5% | 
O=C(CCc1nccs1)N1CCN(c2ccccc2F)CC1 | 34.9% | 
Cc1noc2ncc(C(=O)N3CCCC3c3cnn(C)c3)cc12 (configuration not stated) | -6.59% | 
Cc1ccc2nc(CNCCCOc3ccccc3)cc(O)c2c1 [UCSF924] | -2.02% | 
